Like-named read-outs stand apart in the source and are kept apart here.
What was measured:
HERG [1] = target: T1, HERG (Homo sapiens, UniProt Q12809); test: HERG current in Xenopus oocytes injected with HERG cRNA, two-microelectrode voltage clamp; conditions: for effect on current magnitude or voltage-dependence of channel activation: 1 mM within 30 min of application
Description: (§1) The characteristics of the expressed channel were studied in oocytes 2-6 days after cRNA injection using standard two-microelectrode voltage clamp techniques. HERG current was activated in response to test potentials >−50 mV. […] Deactivation of current (tail current) was assessed after return of the membrane to the holding potential of −70 mV. […] The voltage-dependence of channel activation was assessed by plotting the relative amplitude of tail currents as a function of test potential (FIG. 1D).
(§2) Xenopus frogs were anesthetized by immersion in 0.2% tricaine for 15-30 min. Ovarian lobes were digested with 2 mg/ml Type 1A collagenase (Sigma) in Ca^2+-free ND96 solution for 1.5 hours to remove follicle cells. […] Barth's solution contained (in mM): 88 NaCl, 1 KCl, 0.4 CaCl2, 0.33 Ca(NO3)2, 1 MgSO4, 2.4 NaHCO3, 10 HEPES; pH 7.4.
(§3) Unless indicated, oocytes were bathed in ND96 solution. This solution contained (in mM): 96 NaCl, 2 KCl, 1 MgCl2, 1.8 CaCl2, 5 HEPES; pH 7.6. In some experiments, KCl was varied by equimolar substitution with NaCl. Currents were recorded at room temperature (21-23° C.) using standard two-microelectrode voltage clamp techniques. Glass microelectrodes were filled with 3 M KCl and their tips broken to obtain tip resistances of 1-3 MΩ for the voltage-recording electrode and 0.6-1 MΩ for the current-passing electrode. Oocytes were voltage-clamped with a Dagan TEV-200 amplifier. Voltage commands were generated using pClamp software (ver. 6, Axon Instruments), a 486DX2 personal computer and a TL-1 D/A interface (Axon Instruments). Current signals were digitally sampled at a rate equal to 2-4 times the low-pass cut-off frequency (−3 db) of a 4-pole Bessel filter. Unless indicated, currents were corrected for leak and capacitance using standard, on-line P/3 leak subtraction. The oocyte membrane potential was held at −70 mV between test pulses, applied at a rate of 1-3 pulses/min. Data analyses, including exponential fitting of current traces, were performed using pCLAMP. […] Data are expressed as the mean±SEM (n=number of oocytes).

IKr of cardiac myocytes = conditions: cited from earlier work
HERG [2] = target: T1, HERG
Description: as §1, §2, §3

IKr (mouse AT-1 cells) = target: T2, IKr (mouse AT-1 cells) (Mus musculus, UniProt O35219); conditions: cited from earlier work
T2 sequence (O35219 1-1162): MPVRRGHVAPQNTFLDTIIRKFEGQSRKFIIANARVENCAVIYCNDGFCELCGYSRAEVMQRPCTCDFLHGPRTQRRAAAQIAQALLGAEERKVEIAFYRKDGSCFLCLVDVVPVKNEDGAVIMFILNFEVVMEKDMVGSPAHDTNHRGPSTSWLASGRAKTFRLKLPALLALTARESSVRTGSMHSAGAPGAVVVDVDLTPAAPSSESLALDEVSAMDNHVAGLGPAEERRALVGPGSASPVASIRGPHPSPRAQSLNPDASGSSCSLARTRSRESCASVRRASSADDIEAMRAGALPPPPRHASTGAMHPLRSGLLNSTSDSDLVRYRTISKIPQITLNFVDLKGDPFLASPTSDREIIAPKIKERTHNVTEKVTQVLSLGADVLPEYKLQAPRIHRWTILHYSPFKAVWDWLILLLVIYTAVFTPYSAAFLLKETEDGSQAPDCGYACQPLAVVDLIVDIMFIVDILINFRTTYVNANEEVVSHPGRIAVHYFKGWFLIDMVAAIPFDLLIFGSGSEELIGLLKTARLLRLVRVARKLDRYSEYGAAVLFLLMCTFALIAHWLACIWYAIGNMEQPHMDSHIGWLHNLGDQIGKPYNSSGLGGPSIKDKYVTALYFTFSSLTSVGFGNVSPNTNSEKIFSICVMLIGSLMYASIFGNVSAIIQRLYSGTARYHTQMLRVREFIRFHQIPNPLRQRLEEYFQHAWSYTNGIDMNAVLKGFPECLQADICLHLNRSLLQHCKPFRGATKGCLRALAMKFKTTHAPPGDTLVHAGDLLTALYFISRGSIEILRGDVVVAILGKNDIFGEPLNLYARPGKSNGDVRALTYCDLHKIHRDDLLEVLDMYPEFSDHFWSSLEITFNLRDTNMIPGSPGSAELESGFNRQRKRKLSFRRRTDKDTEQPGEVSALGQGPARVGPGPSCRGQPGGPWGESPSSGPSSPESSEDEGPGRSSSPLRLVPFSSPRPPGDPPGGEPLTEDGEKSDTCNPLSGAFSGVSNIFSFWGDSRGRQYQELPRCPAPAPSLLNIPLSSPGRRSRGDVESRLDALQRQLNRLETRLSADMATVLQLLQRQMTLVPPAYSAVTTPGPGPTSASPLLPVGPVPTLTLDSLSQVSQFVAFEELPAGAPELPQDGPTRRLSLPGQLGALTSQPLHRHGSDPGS

IKr (guinea pig heart) = target: T3, IKr (guinea pig heart) (Cavia porcellus, UniProt O08703); conditions: read-out: IC50 (blockers, methanesulfonanilides); cited from earlier work
T3 construct: host or cells: guinea pig cardiac myocytes (endogenous current)
T3 sequence (O08703 1-1294): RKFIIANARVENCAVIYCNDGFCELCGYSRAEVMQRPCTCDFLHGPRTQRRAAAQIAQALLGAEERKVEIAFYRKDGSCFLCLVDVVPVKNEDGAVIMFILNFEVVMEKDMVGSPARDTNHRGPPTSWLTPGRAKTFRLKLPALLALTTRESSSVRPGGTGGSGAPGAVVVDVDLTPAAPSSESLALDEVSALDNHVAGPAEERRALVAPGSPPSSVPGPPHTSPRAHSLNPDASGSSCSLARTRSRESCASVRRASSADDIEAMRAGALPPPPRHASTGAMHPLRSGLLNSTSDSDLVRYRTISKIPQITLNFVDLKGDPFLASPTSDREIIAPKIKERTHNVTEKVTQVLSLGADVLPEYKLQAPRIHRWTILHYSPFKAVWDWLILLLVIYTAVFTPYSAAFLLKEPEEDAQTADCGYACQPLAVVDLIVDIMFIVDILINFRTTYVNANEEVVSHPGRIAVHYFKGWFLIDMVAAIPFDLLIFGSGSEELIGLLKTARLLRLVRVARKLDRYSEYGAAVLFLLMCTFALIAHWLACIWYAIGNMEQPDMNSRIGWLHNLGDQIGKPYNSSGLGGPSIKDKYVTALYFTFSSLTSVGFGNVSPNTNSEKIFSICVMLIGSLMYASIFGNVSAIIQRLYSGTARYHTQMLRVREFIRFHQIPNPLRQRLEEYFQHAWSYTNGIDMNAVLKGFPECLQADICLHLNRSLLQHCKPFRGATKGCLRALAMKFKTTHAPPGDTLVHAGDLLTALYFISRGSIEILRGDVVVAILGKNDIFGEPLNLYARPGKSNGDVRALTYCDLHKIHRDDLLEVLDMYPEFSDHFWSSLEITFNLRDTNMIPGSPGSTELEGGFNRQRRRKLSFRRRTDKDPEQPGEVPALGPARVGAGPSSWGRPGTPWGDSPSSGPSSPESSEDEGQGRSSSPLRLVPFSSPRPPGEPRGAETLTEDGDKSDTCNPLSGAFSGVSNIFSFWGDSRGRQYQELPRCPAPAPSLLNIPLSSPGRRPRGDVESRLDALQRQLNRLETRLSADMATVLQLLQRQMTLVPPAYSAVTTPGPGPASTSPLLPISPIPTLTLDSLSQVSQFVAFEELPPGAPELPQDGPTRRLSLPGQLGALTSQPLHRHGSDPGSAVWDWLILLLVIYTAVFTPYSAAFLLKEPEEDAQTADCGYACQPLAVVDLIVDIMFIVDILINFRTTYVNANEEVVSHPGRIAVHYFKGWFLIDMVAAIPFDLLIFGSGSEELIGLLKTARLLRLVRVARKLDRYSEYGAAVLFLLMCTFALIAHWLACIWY

rcKATP-1 = target: T4, rcKATP-1 (Rattus norvegicus, UniProt P48548); conditions: expressed in HEK293 cells; cited from earlier work
T4 sequence (P48548 1-419): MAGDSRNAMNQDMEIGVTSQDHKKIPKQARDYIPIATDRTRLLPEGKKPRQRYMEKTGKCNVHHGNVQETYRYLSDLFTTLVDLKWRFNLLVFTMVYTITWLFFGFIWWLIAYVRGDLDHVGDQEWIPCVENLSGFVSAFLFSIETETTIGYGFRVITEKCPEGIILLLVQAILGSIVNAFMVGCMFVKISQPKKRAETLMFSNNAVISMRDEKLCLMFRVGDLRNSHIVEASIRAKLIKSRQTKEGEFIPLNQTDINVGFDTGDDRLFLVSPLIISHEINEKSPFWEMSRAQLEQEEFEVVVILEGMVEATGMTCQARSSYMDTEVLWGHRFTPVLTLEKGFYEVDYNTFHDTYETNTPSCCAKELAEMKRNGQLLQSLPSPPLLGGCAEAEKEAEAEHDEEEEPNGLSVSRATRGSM

T1 sequence (Q12809 whole entry): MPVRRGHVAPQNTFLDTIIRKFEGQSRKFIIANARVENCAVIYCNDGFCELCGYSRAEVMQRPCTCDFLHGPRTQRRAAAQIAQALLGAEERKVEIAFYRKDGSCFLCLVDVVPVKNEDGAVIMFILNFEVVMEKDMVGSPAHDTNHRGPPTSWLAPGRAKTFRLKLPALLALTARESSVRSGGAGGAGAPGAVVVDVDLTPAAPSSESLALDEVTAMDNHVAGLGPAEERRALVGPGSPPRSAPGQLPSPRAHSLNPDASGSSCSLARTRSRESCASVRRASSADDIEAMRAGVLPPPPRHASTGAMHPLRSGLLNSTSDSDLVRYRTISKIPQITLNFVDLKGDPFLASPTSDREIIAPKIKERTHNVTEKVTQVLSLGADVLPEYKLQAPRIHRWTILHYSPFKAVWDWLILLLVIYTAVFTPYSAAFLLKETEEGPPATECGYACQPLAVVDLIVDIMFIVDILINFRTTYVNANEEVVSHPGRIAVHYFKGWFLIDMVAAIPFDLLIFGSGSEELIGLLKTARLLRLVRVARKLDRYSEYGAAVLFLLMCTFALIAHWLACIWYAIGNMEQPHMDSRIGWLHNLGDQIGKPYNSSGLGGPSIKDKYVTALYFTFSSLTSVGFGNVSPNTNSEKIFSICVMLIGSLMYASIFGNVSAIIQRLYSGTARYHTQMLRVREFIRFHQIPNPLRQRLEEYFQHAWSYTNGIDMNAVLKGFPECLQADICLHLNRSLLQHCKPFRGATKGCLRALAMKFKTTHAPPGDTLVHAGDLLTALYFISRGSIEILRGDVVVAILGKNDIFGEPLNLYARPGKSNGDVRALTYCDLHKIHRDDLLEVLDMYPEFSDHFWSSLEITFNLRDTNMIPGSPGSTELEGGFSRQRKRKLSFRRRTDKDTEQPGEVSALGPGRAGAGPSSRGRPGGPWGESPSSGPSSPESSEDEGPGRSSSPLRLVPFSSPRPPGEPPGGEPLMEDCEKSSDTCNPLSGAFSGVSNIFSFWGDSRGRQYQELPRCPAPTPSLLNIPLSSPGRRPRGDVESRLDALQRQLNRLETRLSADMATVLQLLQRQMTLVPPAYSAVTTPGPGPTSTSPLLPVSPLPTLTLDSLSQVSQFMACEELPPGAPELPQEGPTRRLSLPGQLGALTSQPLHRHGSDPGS

Compound: Nc1ncnc2c1nc(Br)n2[C@@H]1O[C@@H]2COP(=O)(O)O[C@H]2[C@H]1O [8-Br-cAMP]
- activation of HERG (HERG [1]): not activated
- effect on current magnitude or voltage-dependence of channel activation (HERG [1]): Neither compound had a significant effect

Compound: Nc1nc2c(nc(Br)n2[C@@H]2O[C@@H]3COP(=O)(O)O[C@H]3[C@H]2O)c(=O)[nH]1 [8-Br-cGMP]
- effect on current magnitude or voltage-dependence of channel activation (HERG [1]): Neither compound had a significant effect

Compound: [Co+2] [Co^2+, cobalt]
- block of IKr (IKr of cardiac myocytes; 2 mM cobalt): blocked
- block of HERG current (HERG [1]; 2 mM Co^2+, n=2): 52%

Compound: [K+] [K^+]
- increase of HERG current (HERG [1]; [K^+]e 5 mM versus 2 mM): 40%

Compound: [La+3] [La^3+, lanthanum]
- Blockers La^3+, Co^2+ (HERG [2]): +
- half-point of activation (isochronal activation curve) (HERG [2]): +23 mV
- block of IKr (IKr of cardiac myocytes; 10-100 μM lanthanum): blocked
- Blockers La^3+, Co^2+ (IKr (mouse AT-1 cells)): +

Compound: CS(=O)(=O)Nc1ccc2c(c1)[C@H](O)CC1(CCN([C@@H]3CCc4cc(C#N)ccc4C3)CC1)O2 [MK-499]
- IC50 (IKr (guinea pig heart)): 0.044 µM

Compound: COc1ccc(Cl)cc1C(=O)NCCc1ccc(S(=O)(=O)NC(=O)NC2CCCCC2)cc1 [glibenclamide]
- block of the channel (rcKATP-1): not blocked

Compound: CC(C)NCC(O)c1ccc(O)c(O)c1 (stereo not shown) [isoproterenol]
- increase of IKr (IKr of cardiac myocytes; cardiac myocytes): does not increase

From patent US7297489B2, “Mutations in and genomic structure of HERG—a long QT syndrome gene” (University of Utah Research Foundation, priority 1998, dated 2007)
